# Measurements published in publication PMC8365602 (Journal of Medicinal Chemistry, 2021).
# Key:
# [1] = tested on: E. coli-stimulated macrophages; assay: Arachidonic acid release from E. coli-stimulated macrophages; assay type: cell-based, human; conditions: ≤1 μM
# Method: Macrophages were stimulated in PBS pH 7.4 (containing 1 mM CaCl2) with E. coli (serotype O6:K2:H1) at a ratio of 1:50 (macrophages: E. coli) for 180 min at 37 °C and 5% CO2.[24]
# Fatty acids and lipid mediators were extracted from macrophage supernatants or murine peritoneal exudates (1 mL) after addition of two aliquots of ice-cold methanol.[23]d8-5S-HETE, d4-LTB4, d5-lipoxin A4, d5-resolvin D2, d4-PGE2 (200 nM, each, Cayman Chemicals), and d8-arachidonic acid (10 μM, Cayman Chemicals) were added as internal standards. After protein precipitation at −20 °C for ≥1 h, supernatants (1200g, 10 min, 4 °C) were acidified (pH 3.5) and loaded onto solid-phase cartridges (Sep-Pak Vac 6cc 500 mg/6 mL C18; Waters), which had been equilibrated with methanol and H2O. The columns were extensively washed with H2O and hexane before lipid mediators were eluted with methyl formate, evaporated to dryness, dissolved in methanol/H2O (50:50), and analyzed by UPLC-MS/MS.[23]
# Absolute quantification was based on 6 internal and 45 external standards.[23]
# 12-LOX = molecular target: T1, 12-LOX (Homo sapiens, UniProt P18054); assay: 12-LOX product formation in activated PMNL; assay type: cell-based
# T1 construct: endogenous in cells; host or cells: primary human PMNL
# Method: Freshly isolated PMNL (5 × 10^6) suspended in PBS pH 7.4 with 1 mg/mL glucose or freshly withdrawn human whole blood were preincubated with the test compounds for 10 min (or as indicated) at 37 °C. […] The reaction was stopped with an equal volume of methanol.
# COX-1 = molecular target: T2, COX-1 (Homo sapiens, UniProt P23219); assay: Platelet COX-1 activity (12-HHT formation); assay type: cell-based
# T2 construct: Freshly isolated platelets (1 × 10^8) were preincubated with vehicle (DMSO) or 27a; endogenous in cells; host or cells: freshly isolated human platelets
# Method: Freshly isolated platelets (1 × 10^8) were preincubated with vehicle (DMSO) or 27a for 5 min at room temperature. Arachidonic acid (5 μM) was added to induce 12-HHT formation.
# [2] = tested on: reconstructed human epidermis (RHE); assay: Experimental atopic dermatitis in reconstructed human epidermis (RHE); assay type: cell-based; conditions: RHE
# Method: Compound 27a was evaluated in an inflammatory model of RHE by Synelvia S.A.S. (Labège, France) according to the company’s protocol.[88] In brief, primary human keratinocytes were used to generate RHE on polycarbonate filters as described.[88] RHE was allowed to acclimate for 6 days (5% CO2, 37 °C) prior to incubation with 27a (5, 10, 25 μM), dexamethasone (1 μM), or vehicle (0.05% DMSO), and a proinflammatory cytokine cocktail for 4 days at 5% CO2 and 37 °C. The culture medium including compounds and cytokines was changed on days 6, 8, and 10. Each culture condition was repeated three times. Acute cytotoxicity of 27a was excluded at the concentrations studied within 24 h by measuring the mitochondrial dehydrogenase activity (MTT assay).
# Morphological changes (i.e., spongiosis and the formation of keratohyalin granules) were evaluated for sections of paraffin-embedded RHEs after hematoxylin-eosin staining.[89] The permeability of the skin barrier was estimated from the transepidermal water loss at the RHE surface.[90] The surface pH was determined with a pH electrode as reported.[89] The permeability of the stratum corneum was addressed by applying Lucifer yellow onto the RHE surface and inspecting the penetration by fluorescence microscopy.[88] TSLP and IL-8 levels were analyzed by ELISA (according to the specifications of Synelvia S.A.S.) in the culture medium on day 2 and day 4 after addition of cytokines, respectively.
# [3] = tested on: zymosan-induced murine peritonitis; assay: Zymosan-induced peritonitis in mice; assay type: in vivo
# Method: Male CD-1 mice (33–39 g, 6–8 weeks, Charles River Laboratories; Calco, Italy) and female BALB/c mice (20 g, 8 weeks, Charles River Laboratories) were fed with standard rodent chow and water and acclimated for 4 days at a 12 h light and 12 h dark schedule in a constant air-conditioned environment (21 ± 2 °C). Mice were randomly assigned to groups, and experiments were carried out during the light phase.
# Zymosan (2 mg/mL in saline, i.p., 0.5 mL, Sigma-Aldrich) was injected at 30 min (i.p.) or 60 min (p.o.) post compound administration. Mice were sacrificed by inhalation of CO2 after another 30 min to determine LTC4 levels, lipid mediator profiles, metabolites, and vascular permeability and after 4 h to analyze LTB4 levels and cell infiltration.[72] Plasma and peritoneal exudates were collected, and cells were counted in exudates after trypan blue staining. Vascular permeability was measured by injection of Evans blue dye (40 mg/kg in saline, 0.3 mL, Sigma-Aldrich) into the tail vain directly before peritonitis induction.[72] The exudate was centrifuged (3000g, 5 min), and the absorbance was measured at 610 nm (DU730 spectrophotometer, Beckman Coulter, Krefeld, Germany). Levels of LTB4 and cysteinyl-LTs (dominated by LTC4) were quantified in the exudate by ELISA (Enzo Life Sciences, Lörrach, Germany) according to the manufacturer’s instructions. Compound 27a, its metabolites, and lipid mediators were extracted and analyzed by UPLC-MS/MS.
# [4] = Concentrations of compound in plasma and lung in the asthma model; assay type: in vivo, mice; conditions: 10 mg/kg p.o. on days 0 and 7
# Method: LCMs, 27a, and 27a metabolites were extracted from PMNL, medium of the liver-on-chip, murine plasma, peritoneal exudate, or homogenized murine tissue as described.[6] In brief, PBS pH 7.4, methanol, chloroform, and saline (final ratio: 14:34:35:17) were successively added together with 13d (9 pmol) as the internal standard. The organic layer was evaporated, and the extracted LCMs were dissolved in methanol.
# LCMs, 27a, and 27a metabolites were separated at a flow rate of 0.8 mL/min and a column temperature of 45 °C, with acetonitrile/H2O (10:90) as mobile phase A and acetonitrile as mobile phase B, both acidified with 0.07% formic acid. […] Signal intensities were normalized to the internal standard 13d, and concentrations were calculated using external calibration curves as specified in Table S3.
# BALB/c mice received 27a (p.o.) or vehicle (0.5% carboxymethylcellulose in 10% Tween 20; 0.5 mL) on days 0 and 7, 1 h (p.o) before being sensitized to ovalbumin (100 μg adsorbed to 3.3 mg of aluminum hydroxide gel, s.c., Sigma-Aldrich). […] To assess bronchial reactivity, the cumulative response to carbachol (0.001 to 3.16 μM) was measured. Bronchial relaxation was determined from the cumulative response of precontracted bronchial tissues to salbutamol. Compound 27a, LTB4, and LTB4 isomers were analyzed in plasma and lung homogenates by UPLC-MS/MS. […]
# [5] = 10 mg/kg i.p., 30 min post zymosan
# [6] = 10 mg/kg i.p., 4 h post zymosan
# T2 sequence (P23219 24-599): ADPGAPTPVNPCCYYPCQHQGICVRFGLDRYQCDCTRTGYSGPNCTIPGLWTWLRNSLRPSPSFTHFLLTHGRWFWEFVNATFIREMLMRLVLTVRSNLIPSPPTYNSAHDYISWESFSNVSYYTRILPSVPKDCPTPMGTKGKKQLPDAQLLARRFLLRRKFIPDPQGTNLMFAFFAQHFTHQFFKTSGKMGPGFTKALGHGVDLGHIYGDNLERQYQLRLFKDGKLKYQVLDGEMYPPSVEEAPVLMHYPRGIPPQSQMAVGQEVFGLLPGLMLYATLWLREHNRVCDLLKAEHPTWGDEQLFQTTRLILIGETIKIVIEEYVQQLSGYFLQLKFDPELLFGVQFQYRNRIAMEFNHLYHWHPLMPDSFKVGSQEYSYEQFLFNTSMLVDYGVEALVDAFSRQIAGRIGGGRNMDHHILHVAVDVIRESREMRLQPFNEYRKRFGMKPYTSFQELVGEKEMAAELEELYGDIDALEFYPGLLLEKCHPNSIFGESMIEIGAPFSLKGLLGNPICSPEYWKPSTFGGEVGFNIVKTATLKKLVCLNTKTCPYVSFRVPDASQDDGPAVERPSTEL
# T1 sequence (P18054 whole entry): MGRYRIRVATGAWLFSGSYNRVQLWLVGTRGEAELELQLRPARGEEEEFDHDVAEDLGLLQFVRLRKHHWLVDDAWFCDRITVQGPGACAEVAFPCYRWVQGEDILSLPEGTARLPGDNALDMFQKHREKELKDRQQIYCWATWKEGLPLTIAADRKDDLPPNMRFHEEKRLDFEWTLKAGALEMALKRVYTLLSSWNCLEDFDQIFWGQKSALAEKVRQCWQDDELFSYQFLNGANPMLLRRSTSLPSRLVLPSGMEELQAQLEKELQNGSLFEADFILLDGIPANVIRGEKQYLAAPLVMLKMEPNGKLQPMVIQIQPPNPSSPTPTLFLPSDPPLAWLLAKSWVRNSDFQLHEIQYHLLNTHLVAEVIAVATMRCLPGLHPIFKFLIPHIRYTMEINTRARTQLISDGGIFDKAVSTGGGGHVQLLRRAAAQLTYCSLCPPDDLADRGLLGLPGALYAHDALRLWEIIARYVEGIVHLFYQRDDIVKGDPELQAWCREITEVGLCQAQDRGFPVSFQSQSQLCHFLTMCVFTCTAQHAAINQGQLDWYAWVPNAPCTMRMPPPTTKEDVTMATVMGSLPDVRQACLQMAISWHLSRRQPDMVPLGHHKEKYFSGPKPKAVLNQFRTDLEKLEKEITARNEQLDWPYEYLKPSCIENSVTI
smiles,measurement,setting,value
"C/C(=C\CC/C(C)=C/CC[C@]1(C)CCc2c(C)c(O)c(C)c(C)c2O1)CCC=C(CO)CO [Compound 27a, α-amplexichromanol]",Availability of free arachidonic acid,[1],neither reduced the availability of free arachidonic acid
same,12-LOX inhibition,12-LOX,not substantially inhibited
same,COX-1 inhibition within human platelets,COX-1,not substantially inhibited
same,TSLP expression,[2]; cytokine cocktail 2 days,did not influence TSLP expression
same,Epidermal disorganization induced by cytokine treatment,[2]; cytokine cocktail 4 days,attenuated the epidermal disorganization
same,IL-8 levels,[2]; cytokine cocktail 4 days,reduced IL-8 levels
same,"Skin barrier functions (TEWL, Lucifer yellow)",[2]; cytokine cocktail 4 days,substantially improved skin barrier functions
same,pH at the RHE surface,[2]; cytokine cocktail 4 days,decreased even below the basal level
same,Cysteinyl-LTs in the exudate,"[3]; 3 mg/kg p.o., 30 min post zymosan",decreased to a basal level
same,LTC4 levels in the exudate,[3]; [5],strongly decreased LTC4 levels in the exudate
same,Vascular permeability,[3]; [5],reduced vascular permeability
same,Influx of cells into the peritoneal cavity,[3]; [6],accordingly reduced
same,LTB4 levels in the exudate,[3]; [6],substantially lowered LTB4 levels
same,Resolvin E3 levels in the exudate,"[3]; 10 mg/kg p.o., 30 min post zymosan injection, individual mice",moderately increased
same,Time course of systemic concentrations in plasma and lung,[4],peaked at the days after administration (days 1 and 8) and then rapidly declined
